Results from article PMC10067623, “Characterization of an Aplysia vasotocin signaling system and actions of posttranslational modifications and individual residues of the ligand on receptor activity” (Frontiers in Pharmacology, 2023).
“And” between values parts separate entries of the source, which are not always exact repeats. Equal values may be shown once. “Also recorded” adds a separate entry of the source. Read-outs that look alike come from different tables or passages of the source. Bridge positions count the residues as written; N and C are the ends. Peptide text beside a SMILES is read from it. * marks the point of attachment. Acm = CC(=O)NC*

Key:
[1] = target: T1, apVTR1 (Aplysia californica, UniProt A0ABM1ABB6); experiment: cell-based; assay type: cell-based; conditions: for activation of apVTR1 (IP1 response), in words / apVTR1 log[EC50]: CHO-K1 cells, without promiscuous Gαq; for apVTR1 log[EC50]: log[EC50] with negative sign as printed, average, n = 3
T1 sequence (A0ABM1ABB6 1-470): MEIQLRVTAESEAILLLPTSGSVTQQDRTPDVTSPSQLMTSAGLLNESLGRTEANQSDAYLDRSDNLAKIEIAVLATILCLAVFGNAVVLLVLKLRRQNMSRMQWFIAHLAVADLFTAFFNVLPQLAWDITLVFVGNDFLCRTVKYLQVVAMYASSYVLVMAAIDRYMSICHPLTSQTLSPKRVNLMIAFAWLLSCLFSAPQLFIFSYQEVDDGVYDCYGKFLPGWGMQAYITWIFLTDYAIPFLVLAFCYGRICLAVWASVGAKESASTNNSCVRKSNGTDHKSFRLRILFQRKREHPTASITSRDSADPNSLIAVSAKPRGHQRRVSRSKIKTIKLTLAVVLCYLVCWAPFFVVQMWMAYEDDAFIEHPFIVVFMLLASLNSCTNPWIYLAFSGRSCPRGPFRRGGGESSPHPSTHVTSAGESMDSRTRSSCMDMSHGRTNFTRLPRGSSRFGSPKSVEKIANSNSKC

[2] = system: apVTR2; experiment: IP1 accumulation assay, apVTR2 transiently expressed in CHO-K1 cells; assay type: cell-based, Aplysia californica; conditions: for apVTR2 log[EC50]: log[EC50] with negative sign as printed, average
[3] = system: Class-A GPCR 3; experiment: IP1 accumulation assay, Class-A GPCR 3 co-transfected with promiscuous Gαq (Gα16) in CHO-K1 cells; assay type: cell-based, Aplysia californica
[4] = CHO-K1 cells, without promiscuous Gαq, dose-response 10^-12 M to 10^-4 M, n = 3
[5] = n = 3, CHO-K1 cells, without promiscuous Gαq
[6] = co-transfected with promiscuous Gαq (Gα16), 10^-5 M vs 10^-10 M
[7] = CHO-K1 cells, without promiscuous Gαq
[8] = co-transfected with promiscuous Gαq, 10^-5 M vs 10^-10 M (control)

Row | Molecule | EC50 ([1]; apVTR1 EC50) | EC50 ([1]; apVTR1 log[EC50]) | apVTR2 log[EC50] [2, 5] | activation of Class-A GPCR 3 (IP1 response), in words [3, 6] | EC50 [2] | other results
1 | CC(C)[C@@H]1NC(=O)[C@H](Cc2ccccc2)NC(=O)[C@@H](N)CSSC[C@@H](C(=O)N2CCC[C@H]2C(=O)N[C@H](C(=O)NCC(N)=O)[C@@H](C)O)NC(=O)[C@H](CC(N)=O)NC(=O)[C@H](CCCNC(=N)N)NC1=O [Annetocin, reference compound] (H-CFVRNCPTG-NH2; disulfide 1-6) | 5.6 µM | 6.31 µM | -6.0±0.20 M | do not affect; also recorded: none of the four peptides had any effects | – | EC50 [2, 4]: 1100 nM
2 | CC[C@H](C)[C@@H]1NC(=O)[C@H](Cc2ccc(O)cc2)NC(=O)[C@@H](N)CSSC[C@@H](C(=O)N2CCC[C@H]2C(=O)N[C@@H](CC(C)C)C(=O)NCC(N)=O)NC(=O)[C@H](CC(N)=O)NC(=O)[C@H](CCC(N)=O)NC1=O [Oxytocin, reference compound] | 16 µM | 15.8 µM | -5.4±0.016 M | do not affect; also recorded: none of the four peptides had any effects | – | activation of apVTR1 (IP1 response), in words [1]: weak activation effect; activation of apVTR2 (IP1 response), in words [2, 7]: weak activation effect; EC50 [2, 4]: 3600 nM
3 | C[C@@H]1NC(=O)[C@H](Cc2ccccc2)NC(=O)[C@@H](N)CSSC[C@@H](C(=O)N2CCC[C@H]2C(=O)N[C@@H](CCCCN)C(=O)NCC(N)=O)NC(=O)[C@H](CC(N)=O)NC(=O)[C@H](CCCNC(=N)N)NC1=O [[Ala^3]apVT] (H-CFARNCPKG-NH2; disulfide 1-6) | 30 µM | 31.6 µM | – | – | – | –
4 | CC[C@H](C)[C@@H]1NC(=O)[C@H](Cc2ccccc2)NC(=O)[C@@H](N)CSSC[C@@H](C(=O)N2CCC[C@H]2C(=O)N[C@@H](CCCCN)C(=O)NCC(N)=O)NC(=O)[C@H](C)NC(=O)[C@H](CCCNC(=N)N)NC1=O [[Ala^5]apVT] (H-CFIRACPKG-NH2; disulfide 1-6) | 6 µM | 6.31 µM | – | – | – | –
5 | CC[C@H](C)[C@@H]1NC(=O)[C@H](Cc2ccccc2)NC(=O)[C@@H](N)CSSC[C@@H](C(=O)N[C@@H](C)C(=O)N[C@@H](CCCCN)C(=O)NCC(N)=O)NC(=O)[C@H](CC(N)=O)NC(=O)[C@H](CCCNC(=N)N)NC1=O [[Ala^7]apVT] (H-CFIRNCAKG-NH2; disulfide 1-6) | 1.1 µM | 1 µM | – | – | – | –
6 | CC[C@H](C)[C@@H]1NC(=O)[C@H](Cc2ccccc2)NC(=O)[C@@H](N)CSSC[C@@H](C(=O)N2CCC[C@H]2C(=O)N[C@@H](C)C(=O)NCC(N)=O)NC(=O)[C@H](CC(N)=O)NC(=O)[C@H](CCCNC(=N)N)NC1=O [[Ala^8]apVT] (H-CFIRNCPAG-NH2; disulfide 1-6) | 1.5 µM | 1.58 µM | – | – | – | –
7 | CC[C@H](C)[C@@H]1NC(=O)[C@H](Cc2ccccc2)NC(=O)[C@@H](N)CSSC[C@@H](C(=O)N2CCC[C@H]2C(=O)N[C@@H](CCCCN)C(=O)N[C@@H](C)C(N)=O)NC(=O)[C@H](CC(N)=O)NC(=O)[C@H](CCCNC(=N)N)NC1=O [[Ala^9]apVT] (H-CFIRNCPKA-NH2; disulfide 1-6) | 1 µM | 1 µM | – | – | – | –
8 | CC[C@H](C)[C@H](NC(=O)[C@H](Cc1ccccc1)NC(=O)[C@@H](N)CSCNC(C)=O)C(=O)N[C@@H](CCCNC(=N)N)C(=O)N[C@@H](CC(N)=O)C(=O)N[C@@H](CSCNC(C)=O)C(=O)N1CCC[C@H]1C(=O)N[C@@H](CCCCN)C(=O)NCC(N)=O [[Cys(Acm)^1,6]apVT] (H-C(Acm)FIRNC(Acm)PKG-NH2; N-terminus and C-terminus assumed) | 12 µM | 12.6 µM | -4.3±0.57 M | – | 47000 nM | –
9 | CC[C@H](C)[C@H](NC(=O)[C@H](Cc1ccccc1)NC(=O)[C@@H](N)CSCNC(C)=O)C(=O)N[C@@H](CCCNC(=N)N)C(=O)N[C@@H](CC(N)=O)C(=O)N[C@@H](CS)C(=O)N1CCC[C@H]1C(=O)N[C@@H](CCCCN)C(=O)NCC(N)=O [[Cys(Acm)^1]apVT] (H-C(Acm)FIRNCPKG-NH2; N-terminus assumed) | 2.9 µM | 3.16 µM | -5.1±0.21 M | – | 7800 nM | –
10 | CC[C@H](C)[C@H](NC(=O)[C@H](Cc1ccccc1)NC(=O)[C@@H](N)CS)C(=O)N[C@@H](CCCNC(=N)N)C(=O)N[C@@H](CC(N)=O)C(=O)N[C@@H](CSCNC(C)=O)C(=O)N1CCC[C@H]1C(=O)N[C@@H](CCCCN)C(=O)NCC(N)=O [[Cys(Acm)^6]apVT] (H-CFIRNC(Acm)PKG-NH2; N-terminus assumed) | 1.5 µM | 1.58 µM | -5.1±0.21 M | – | 7800 nM | –
11 | CC[C@H](C)[C@H](NC(=O)[C@H](Cc1ccccc1)NC(=O)[C@@H](N)CS)C(=O)N[C@@H](CCCNC(=N)N)C(=O)N[C@@H](CC(N)=O)C(=O)N[C@@H](CS)C(=O)N1CCC[C@H]1C(=O)N[C@@H](CCCCN)C(=O)NCC(=O)O [apVT'-OH] (H-CFIRNCPKG-OH; N-terminus assumed) | 2.2 µM | 2 µM | -5.6±0.18 M | – | 2200 nM | –
12 | CC[C@H](C)[C@@H]1NC(=O)[C@H](Cc2ccccc2)NC(=O)[C@@H](N)CSSC[C@@H](C(=O)N2CCC[C@H]2C(=O)N[C@@H](CCCCN)C(=O)NCC(N)=O)NC(=O)[C@H](CC(N)=O)NC(=O)[C@H](CCCNC(=N)N)NC1=O [apVT, Aplysia vasotocin] (H-CFIRNCPKG-NH2; disulfide 1-6; N-terminus assumed) | 0.07 µM | – | -7.1±0.18 M | – | 77 nM and 70 nM | apVTR1 EC50 [1]: 65 nM; screening of apVTR1 activation (IP1 response), in words [1, 8]: responded; apVTR1 log[EC50] [1]: -7.2±0.036 M; apVTR1 log[EC50] ([1]; listed as apVT'): -7.2±0.07 M; screening of apVTR2 activation (IP1 response), in words [2, 8]: responded; apVTR2 log[EC50] ([2]; n = 3, CHO-K1 cells, without promiscuous Gαq, listed as apVT'): -7.2±0.15 M; activation of Class-A GPCR 3 (IP1 response), in words [3]: no response; also recorded: not responsive
13 | CC[C@H](C)[C@@H]1NC(=O)[C@H](Cc2ccccc2)NC(=O)[C@@H](N)CSSC[C@@H](C(=O)N2CCC[C@H]2C(=O)N[C@@H](CCCCN)C(=O)NCC(=O)O)NC(=O)[C@H](CC(N)=O)NC(=O)[C@H](CCCNC(=N)N)NC1=O [apVT-OH] (H-CFIRNCPKG-OH; disulfide 1-6; N-terminus assumed) | 3.5 µM | 3.16 µM | -6.0±0.06 M | – | 1000 nM | –
14 | AstC | – | – | – | not responsive to any of these | – | –
15 | Urotensin II | – | – | – | not responsive to any of these | – | –
16 | Vasopressin [reference compound] | – | – | – | none of the four peptides had any effects | – | activation of apVTR1 (IP1 response), in words [1]: no effects; activation of apVTR2 (IP1 response), in words [2, 7]: no effects; activation of Class-A GPCR 3 (IP1 response), in words ([3]; co-transfected with promiscuous Gαq (Gα16), 10^-5 M vs 10^-10 M, listed as Vasopressin): do not affect
